Assays:
[1] = system: Trypanosoma brucei brucei; assay: Antitrypanosomal activity against pentamidine-sensitive Trypanosoma brucei brucei LAB 110 EATRO; assay type: functional, organism-based
[2] = system: Trypanosoma brucei rhodesiense; assay: Antitrypanosomal activity against Multidrug-resistant Trypanosoma brucei rhodesiense KETRI 243; assay type: functional, organism-based
A549 = assay: Cytotoxicity against human A549 cells; assay type: cell-based
[3] = Selectivity index, ratio of IC50 for human A549 cells to IC50 for Trypanosoma brucei; assay type: toxicity, cell-based; conditions: read-out: Ratio IC50
[4] = Selectivity index, ratio of IC50 for human A549 cells to IC50 for Pneumocystis carinii
Nucleic Acid [5] = assay: Binding affinity to poly(dA-dT)DNA assessed as change in melting temperature; assay type: nucleic-acid assay
Nucleic Acid [6] = assay: Binding affinity to DNA assessed as change in melting temperature; assay type: nucleic-acid assay
Pneumocystis carinii = assay: Antipneumocystis activity against Pneumocystis carinii; assay type: functional, organism-based

Row | Structure (SMILES) | IC50 [1] [µM] | IC50 [2] [µM] | IC50 (A549) [µM] | selectivity ratio [3] | Ratio IC50 [4] | ΔTm (Nucleic Acid [5]) [°C] | ΔTm (Nucleic Acid [6]) [°C] | IC50 (Pneumocystis carinii) [µM]
1 | N=C(N)c1ccc(NC(=O)CCCCC(=O)Nc2ccc(C(=N)N)cc2)cc1 | 0.003 | 0.002 | 1190 | 18900 | 596500 | 7.5 | 11.4 | –
2 | N=C(N)c1ccc(NC(=O)CCCCCCCCCCC(=O)Nc2ccc(C(=N)N)cc2)cc1 | 0.008 | 0.007 | 18 | – | – | 7.5 | – | 3.07
3 | NC(=O)c1ccc(NC(=O)CCCCC(=O)Nc2ccc(C(N)=O)cc2)cc1 | 2.8 | 1.1 | – | – | – | 7.5 | – | > 100
4 | N=C(N)c1ccc(NC(=O)CCCCCC(=O)Nc2ccc(C(=N)N)cc2)cc1 | 0.002 | 0.002 | > 237 | 18900 | – | 7.5 | – | 2.37
5 | NC(=O)c1cccc(NC(=O)CCCCC(=O)Nc2cccc(C(N)=O)c2)c1 | – | 1.97 | > 261 | – | – | 7.5 | – | > 100
6 | N=C(N)c1cccc(NC(=O)CCCCC(=O)Nc2cccc(C(=N)N)c2)c1 | 0.041 | 0.021 | – | – | – | 13.8 | 13.8 | 33.7
7 | N=C(N)c1ccc(NC(=O)CCC(=O)Nc2ccc(C(=N)N)cc2)cc1 | 9 | 2.19 | > 44.2 | – | – | 7.5 | 11.4 | 0.442
8 | N=C(N)c1ccc(NC(=O)CCCC(=O)Nc2ccc(C(=N)N)cc2)cc1 | 0.009 | 0.096 | 2280 | – | – | 7.5 | 11.4 | 0.003
9 | N=C(N)c1ccc(NC(=O)CCCCCCC(=O)Nc2ccc(C(=N)N)cc2)cc1 | 0.003 | 0.001 | 176 | 18900 | – | 13.2 | 13.2 | 1.95
10 | N=C(N)c1ccc(NC(=O)CCCCCCCCC(=O)Nc2ccc(C(=N)N)cc2)cc1 | 0.002 | 0.004 | 249 | 18900 | – | 7.5 | – | 4.28
11 | N=C(N)c1ccc(OCCCCCOc2ccc(C(=N)N)cc2)cc1 [PENTAMIDINE] | – | […] | – | – | – | 21.6 | – | –
12 | N#Cc1ccc(NC(=O)CCCC(=O)Nc2ccc(C#N)cc2)cc1 | 6.5 | 7.9 | – | – | – | 7.5 | – | –
13 | N=C(N)c1ccc(NC(=O)CCCCC(=O)Nc2cccc(C(=N)N)c2)cc1 | 0.012 | 0.007 | > 227 | 18900 | – | 7.5 | – | 2.27
14 | N=C(N)c1ccc(NC(=O)CCCCCCCC(=O)Nc2ccc(C(=N)N)cc2)cc1 | 0.4 | 0.24 | 2.87 | – | – | 7.5 | – | 2.44

— ChEMBL document CHEMBL1154260, “Synthesis and SAR of alkanediamide-linked bisbenzamidines with anti-trypanosomal and anti-pneumocystis activity” (Bioorg Med Chem Lett, 2009)
